Experimental data: US10793563B2, “GCN2 inhibitors and uses thereof” (Merck Patent GmbH, priority 2018, dated 2020)

Key:
[1] = target: intracellular GCN2 (phosphorylation of the GCN2 substrate eIF2α) (Homo sapiens (Human), UniProt Q9P2K8); assay: GCN2 Cellular Inhibition Assay (AlphaScreen SureFire P-eIF2α Ser51, borrelidin-treated U2OS cells); assay type: cell-based; conditions: 10 μM borrelidin, 1 h, phosphorylated eIF2α Ser51, read-out: GCN2 Biomarker (IC50)
How it was run: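 U2OS cells adhered overnight, then given compound (top 40 μM, 4-fold serial dilutions) plus 10 μM borrelidin for 1 h at 37 °C. Lysates assayed for eIF2α phospho-Ser51 by AlphaScreen SureFire; % inhibition versus borrelidin-only wells.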

[2] = target: GCN2 kinase (Homo sapiens (Human), UniProt Q9P2K8); assay: GCN2 Enzyme Inhibition Assay (Transcreener ADP2 fluorescence polarization); assay type: biochemical; conditions: 280 μM ATP, 200 μM (RS)7 peptide, 4 nM GCN2, 25° C.; for Ki: Ki(app)
GCN2 kinase, sequence (Q9P2K8 whole entry): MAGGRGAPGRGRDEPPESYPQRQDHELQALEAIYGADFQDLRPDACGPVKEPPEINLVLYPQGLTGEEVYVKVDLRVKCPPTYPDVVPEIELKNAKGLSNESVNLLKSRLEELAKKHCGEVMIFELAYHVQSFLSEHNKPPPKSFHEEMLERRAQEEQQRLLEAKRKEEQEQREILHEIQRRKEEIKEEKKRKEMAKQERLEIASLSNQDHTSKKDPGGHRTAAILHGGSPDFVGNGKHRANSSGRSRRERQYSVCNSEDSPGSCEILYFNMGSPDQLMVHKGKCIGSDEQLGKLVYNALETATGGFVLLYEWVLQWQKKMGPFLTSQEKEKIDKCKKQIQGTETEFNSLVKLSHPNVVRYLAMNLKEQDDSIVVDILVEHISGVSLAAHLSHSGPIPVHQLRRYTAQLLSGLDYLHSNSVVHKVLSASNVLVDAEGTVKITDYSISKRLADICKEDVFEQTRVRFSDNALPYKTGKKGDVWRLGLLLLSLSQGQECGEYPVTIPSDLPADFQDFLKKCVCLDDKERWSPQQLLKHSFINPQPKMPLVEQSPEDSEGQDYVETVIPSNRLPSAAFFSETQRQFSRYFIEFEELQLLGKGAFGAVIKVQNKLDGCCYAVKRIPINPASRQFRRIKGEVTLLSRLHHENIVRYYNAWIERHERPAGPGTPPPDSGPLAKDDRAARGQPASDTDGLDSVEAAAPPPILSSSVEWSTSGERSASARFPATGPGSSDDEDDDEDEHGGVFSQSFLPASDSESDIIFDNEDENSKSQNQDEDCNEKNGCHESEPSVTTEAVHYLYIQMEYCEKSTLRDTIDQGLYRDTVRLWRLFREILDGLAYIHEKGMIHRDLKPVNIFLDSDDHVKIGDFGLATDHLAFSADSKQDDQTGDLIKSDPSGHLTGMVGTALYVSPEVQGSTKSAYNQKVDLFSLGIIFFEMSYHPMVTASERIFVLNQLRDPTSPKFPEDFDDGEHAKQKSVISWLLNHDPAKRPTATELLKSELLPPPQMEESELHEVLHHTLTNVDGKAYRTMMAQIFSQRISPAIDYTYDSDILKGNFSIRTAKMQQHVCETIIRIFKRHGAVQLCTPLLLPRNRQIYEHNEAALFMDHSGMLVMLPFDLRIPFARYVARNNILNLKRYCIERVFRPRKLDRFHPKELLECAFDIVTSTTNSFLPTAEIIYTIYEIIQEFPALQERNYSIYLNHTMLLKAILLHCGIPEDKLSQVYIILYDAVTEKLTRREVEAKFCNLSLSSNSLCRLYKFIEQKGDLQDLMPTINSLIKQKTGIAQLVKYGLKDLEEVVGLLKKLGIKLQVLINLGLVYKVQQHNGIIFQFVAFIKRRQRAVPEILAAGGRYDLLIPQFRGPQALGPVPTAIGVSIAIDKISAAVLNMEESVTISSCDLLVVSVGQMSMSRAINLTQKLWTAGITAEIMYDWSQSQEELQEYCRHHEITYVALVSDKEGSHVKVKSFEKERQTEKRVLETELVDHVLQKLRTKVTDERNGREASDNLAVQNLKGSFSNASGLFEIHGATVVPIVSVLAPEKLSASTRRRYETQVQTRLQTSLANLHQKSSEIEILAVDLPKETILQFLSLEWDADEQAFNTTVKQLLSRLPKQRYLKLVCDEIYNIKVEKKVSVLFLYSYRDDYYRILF
How it was run: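 Transcreener ADP2 fluorescence polarization detection of ADP from 4 nM GCN2 with (RS)7 substrate in 25 mM Tris-HCl pH 7.5, 50 mM NaCl, 10 mM MgCl2, 1 mM DTT. Compound pre-incubated with enzyme 10 min at 25 °C; reaction started by ATP, run 1 h at 25 °C. IC50 and Ki(app) by tight-binding fit.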

intracellular GCN2 (phosphorylation of the GCN2 substrate eIF2α), sequence (Q9P2K8 whole entry): as above

Row | SMILES | IC50 [1] [nM] | IC50 [2] [nM] | Ki [2] [nM]
1 | NS(=O)(=O)C1CCCN(c2ccnc(-c3cnc4ccc(C(F)(F)F)cn34)n2)C1 (stereo not drawn) [I-242, 1-(2-(6-(trifluoromethyl)imidazo[1,2-a]pyridin-3-yl)pyrimidin-4-yl)piperidine-3-sulfonamide] | > 5000 | 10 to 100 | 
2 | O=C1NCC2CN(c3ccnc(-c4cnc5ccc(C(F)(F)F)cn45)n3)CCN12 (stereo not drawn) [I-6, 7-(2-(6-(trifluoromethyl)imidazo[1,2-a]pyridin-3-yl)pyrimidin-4-yl)hexahydroimidazo[1,5-a]pyrazin-3(2H)-one] | 500 to 5000 |  | 10 to 100
3 | CC1C(CNS(C)(=O)=O)N(C2COC2)CCN1c1ccnc(-c2cnc3ccc(C(F)F)cn23)n1 (stereo not drawn) [I-530, N-((4-(2-(6-(difluoromethyl)imidazo[1,2-a]pyridin-3-yl)pyrimidin-4-yl)-3-methyl-1-(oxetan-3-yl)piperazin-2-yl)methyl)methanesulfonamide] | 500 to 5000 | 10 to 100 | 
4 | C[C@@H]1C[C@H](N=S(C)(C)=O)CN(c2ccnc(-c3cnc4cc(F)c(Br)cn34)n2)C1 [I-317, (((3 S,5R)-1-(2-(6-bromo-7-fluoroimidazo[1,2-a]pyridin-3-yl)pyrimidin-4-yl)-5-methylpiperidin-3-yl)imino)dimethyl-λ6-sulfanone] | 500 to 5000 | 10 to 100 | 
5 | NC(=O)[C@H]1CCCN(c2ncc(F)c(-c3cnc4ccc(C(F)(F)F)cn34)n2)C1 [I-219, (S)-1-(5-fluoro-4-(6-(trifluoromethyl)imidazo[1,2-a]pyridin-3-yl)pyrimidin-2-yl)piperidine-3-carboxamide] | 500 to 5000 | 10 to 100 | 
6 | Cc1[nH]ncc1C1CN(c2ccnc(-c3cnc4ccc(Cl)cn34)n2)CC(C)N1 (stereo not drawn) [I-267, 6-chloro-3-(4-(3-methyl-5-(5-methyl-1H-pyrazol-4-yl)piperazin-1-yl)pyrimidin-2-yl)imidazo[1,2-a]pyridine] | 500 to 5000 | 10 to 100 | 
7 | Clc1ccc2ncc(-c3nccc(N4CCC(c5cn[nH]c5)C4)n3)n2c1 (stereo not drawn) [I-27, 6-Chloro-3-[4-[3-(1H-pyrazol-4-yl)pyrrolidin-1-yl]pyrimidin-2-yl]imidazo[1,2-a]pyridine] | < 500 |  | < 10

Results, then the molecule that gave them:

Row | IC50 [1] [nM] | IC50 [2] [nM] | Ki [2] [nM] | SMILES
8 | < 500 | 10 to 100 |  | Cc1n[nH]cc1C1CC(F)CN(c2ccnc(-c3cnc4ccc(C(F)(F)F)cn34)n2)C1 (stereo not drawn) [I-357, 3-(4-(3-fluoro-5-(3-methyl-1H-pyrazol-4-yl)piperidin-1-yl)pyrimidin-2-yl)-6-(trifluoromethyl)imidazo[1,2-a]pyridine]
9 | < 500 | 10 to 100 |  | C[C@H]1CN(c2nccc(-c3cnc4ccc(C(F)(F)F)cn34)n2)CC(c2cc[nH]n2)O1 (stereo in doubt) [I-138, (2S,6R)-2-methyl-6-(1H-pyrazol-3-yl)-4-(4-(6-(trifluoromethyl)imidazo[1,2-a]pyridin-3-yl)pyrimidin-2-yl)morpholine]
10 | < 500 | 10 to 100 |  | C[C@@H]1CN(c2nccc(-c3cnc4ccc(C(F)(F)F)cn34)n2)[C@H](C)C(c2cn[nH]c2)N1 (stereo partly drawn) [I-171, 3-(2-((2R,5R)-2,5-dimethyl-3-(1H-pyrazol-4-yl)piperazin-1-yl)pyrimidin-4-yl)-6-(trifluoromethyl)imidazo[1,2-a]pyridine]
11 | < 500 |  | 100 to 1000 | Fc1cc2ncc(-c3nccc(N4CCOC(c5ccccn5)C4)n3)n2cc1Cl (stereo not drawn) [I-88, 6-Chloro-7-fluoro-3-[4-(2-pyridin-2-yl-morpholin-4-yl)-pyrimidin-2-yl]-imidazo[1,2-a]pyridine]
12 | < 500 | 10 to 100 |  | Cc1cc(-c2cnc3ccc(N4CC(F)(F)C4)cn23)nc(N2C[C@@H](C)C[C@H](c3cn[nH]c3)C2)n1 [I-287, 6-(3,3-difluoroazetidin-1-yl)-3-(6-methyl-2-((3 S, 5R)-3-methyl-5-(1H-pyrazol-4-yl)piperidin-1-yl)pyrimidin-4-yl)imidazo[1,2-a]pyridine]
